ChEMBL document CHEMBL1201862, “PubChem BioAssay data set” (2004)
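How tested: cells in 96-well plates exposed to compound for 48 hours at five concentrations. Here, GI50 denotes the concentration required for 50% inhibition of growth.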 Calls of active or inactive are those of the source. Cut-off read from the data, not from the text of the source: active = GI50 up to about 1.1 µM and inactive = higher.

Tests used:
Test in all cases: inhibition of tumour cell growth, NCI panel, 48 h
[1] = tested on: A498
[2] = tested on: ACHN
[3] = tested on: CCRF-CEM
[4] = tested on: COLO 205
[5] = tested on: EKVX
[6] = tested on: IGROV-1
[7] = tested on: LOX IMVI
[8] = tested on: MOLT-4
[9] = tested on: NCI-H226
[10] = tested on: OVCAR-5
[11] = tested on: SF-268
[12] = tested on: SK-MEL-28
[13] = tested on: SK-OV-3
[14] = tested on: SN12C
[15] = tested on: SNB-75
[16] = tested on: UACC-257
[17] = tested on: U-251
[18] = tested on: SR

Measured: GI50

Cc1cccc(NC(=O)Cc2nc3ccccc3s2)c1C
inactive: [1] 83.8 µM | [2] > 100 µM | [3] > 100 µM | [4] > 100 µM | [5] > 100 µM | [6] > 100 µM | [7] > 100 µM | [8] > 100 µM | [9] > 100 µM | [10] > 100 µM | [11] > 100 µM | [12] > 100 µM | [13] > 100 µM | [14] > 100 µM | [15] > 100 µM | [16] > 100 µM

Cc1cn(Cc2ccccc2CCO)c(=S)[nH]c1=O
inactive: [1] > 100 µM | [2] > 100 µM | [3] > 100 µM | [4] > 100 µM | [5] > 100 µM | [6] > 100 µM | [7] > 100 µM | [8] > 100 µM | [9] 34.8 µM | [10] > 100 µM | [11] > 100 µM | [12] > 100 µM | [13] > 100 µM | [14] > 100 µM | [15] > 100 µM | [17] > 100 µM | [16] > 100 µM

Cc1cc(Cl)ccc1NC(=O)CCCC(=O)C1CCCC1=O (centres undefined)
inactive: [1] > 100 µM | [2] > 100 µM | [3] > 100 µM | [4] > 100 µM | [5] > 100 µM | [6] > 100 µM | [7] > 100 µM | [8] > 100 µM | [9] > 100 µM | [10] > 100 µM | [11] > 100 µM | [13] > 100 µM | [14] > 100 µM | [17] > 100 µM | [16] > 100 µM

O=C(/C=C/c1ccccc1Cl)c1ccc(Cl)cc1Cl
inactive: [1] 18.8 µM | [2] 18.1 µM | [3] 4.02 µM | [4] 18.1 µM | [5] 18.9 µM | [6] 14.5 µM | [8] 3.91 µM | [9] 15.7 µM | [10] 17.1 µM | [11] 15 µM | [12] 11.6 µM | [13] 19.4 µM | [14] 17.9 µM | [15] 18.7 µM | [17] 12.9 µM | [16] 15.9 µM

CC12Oc3ccc4ccccc4c3C1c1c(ccc3ccccc13)O2 (centres undefined)
inactive: [2] > 100 µM | [3] > 100 µM | [4] > 100 µM | [5] > 100 µM | [6] > 100 µM | [7] > 100 µM | [8] > 100 µM | [9] > 100 µM | [10] > 100 µM | [11] > 100 µM | [12] > 100 µM | [13] > 100 µM | [14] > 100 µM | [15] 43.3 µM | [18] > 100 µM | [17] > 100 µM

O=C1c2c(n(Cc3ccccc3)c(=O)n2Cc2ccccc2)C(=O)N1Cc1ccccc1
inactive: [1] 70 µM | [2] 91.6 µM | [3] 9.2 µM | [4] > 100 µM | [5] 66.8 µM | [6] 93.5 µM | [7] 32.4 µM | [8] 54.6 µM | [9] 92.7 µM | [10] > 100 µM | [11] 64.1 µM | [12] > 100 µM | [13] > 100 µM | [14] 65.5 µM | [15] 64.7 µM | [17] 50.4 µM | [16] 67.6 µM

Cc1cc(C)nc(NS(=O)(=O)c2ccc(Nc3c4ccc(Cl)cc4nc4c(C(=O)Nc5ccc(S(=O)(=O)N=C(N)N)cc5)cccc34)cc2)n1
inactive: [1] > 100 µM | [2] 96.6 µM | [3] 20.6 µM | [5] > 100 µM | [7] 49.9 µM | [8] 29 µM | [10] > 100 µM | [11] 35.7 µM | [12] 77.6 µM | [13] > 100 µM | [14] > 100 µM | [15] 57.7 µM | [17] 87.5 µM | [16] > 100 µM

CCc1nnc(CC)n1-n1c(Cc2ccccc2)n[nH]c1=O
inactive: [2] > 100 µM | [3] > 100 µM | [4] > 100 µM | [5] > 100 µM | [6] > 100 µM | [7] > 100 µM | [8] > 100 µM | [10] > 100 µM | [11] > 100 µM | [12] > 100 µM | [13] > 100 µM | [14] > 100 µM | [15] > 100 µM | [18] > 100 µM | [17] > 100 µM | [16] > 100 µM

Cc1cc2c(C)nn(Cc3ccccc3)c2c(C(N)=O)c1C
inactive: [1] > 100 µM | [2] > 100 µM | [3] > 100 µM | [4] > 100 µM | [5] > 100 µM | [6] > 100 µM | [7] > 100 µM | [8] 62.1 µM | [10] > 100 µM | [11] > 100 µM | [12] > 100 µM | [13] > 100 µM | [14] > 100 µM | [15] 21.6 µM | [17] > 100 µM | [16] > 100 µM

Cc1nc(-c2nc(C)c(C(=O)/C=C/c3ccc([N+](=O)[O-])cc3)s2)sc1C(=O)/C=C/c1ccc([N+](=O)[O-])cc1
inactive: [1] > 100 µM | [2] > 100 µM | [3] > 10 µM | [4] > 100 µM | [5] > 100 µM | [6] > 100 µM | [7] > 100 µM | [8] > 100 µM | [9] > 100 µM | [10] > 100 µM | [11] > 100 µM | [12] > 100 µM | [13] > 100 µM | [14] > 100 µM | [15] > 100 µM | [17] > 100 µM | [16] > 100 µM

c1ccc(CNc2ccc3[nH]c4cnccc4c3c2)cc1
inactive: [1] 15 µM | [2] 15.1 µM | [3] 16.9 µM | [4] 15.9 µM | [5] 19 µM | [6] 16.8 µM | [7] 17.8 µM | [8] 14 µM | [9] 19.1 µM | [10] 16.8 µM | [11] 16.4 µM | [12] 13.6 µM | [13] 18.8 µM | [14] 16.9 µM | [15] 6.89 µM | [17] 15.9 µM | [16] 17.4 µM

CCO/C(CCn1[nH]c(=O)c(Cl)c(Cl)c1=O)=N\NC(=O)C(=O)NN
inactive: [1] 82.8 µM | [2] > 100 µM | [3] > 100 µM | [4] > 100 µM | [5] > 100 µM | [6] > 100 µM | [7] > 100 µM | [8] > 100 µM | [9] > 100 µM | [10] > 100 µM | [11] > 100 µM | [12] > 100 µM | [13] > 100 µM | [14] > 100 µM | [15] > 100 µM | [17] > 100 µM | [16] > 100 µM
